{"source": "patent US10770169B2", "about": "“Method of providing a treatment to a subject based on a dynamic pathway map” (THE REGENTS OF THE UNIVERSITY OF CALIFORNIA, priority 2010, dated 2020)", "key": {"[1]": {"tested_on": "panel of 55 breast cancer cell lines", "experiment": "Cell growth inhibition assay (Cell Titer Glo, 72 h, 9 doses; GI50, TGI, LC50)", "assay_type": "cell-based, human", "details": "value is the negative log10 of mol/L"}, "[2]": {"tested_on": "luminal, basal, claudin-low and ERBB2AMP breast cancer cell lines", "experiment": "Associations of clinically relevant subtypes and response (non-parametric ANOVA or t-test on GI50 ranks)", "assay_type": "cell-based, human", "details": "Table 6; most sensitive subtype, FDR p<0.20", "description": "A central premise of this study is that associations between responses and molecular subtypes observed in preclinical cell line analyses will be recapitulated in the clinic in instances where the predictive molecular features in the cell lines are mirrored in human tumors. We established response-subtype associations by using non-parametric ANOVAs to compare […] values across transcriptional and genomics subtypes.\nDifferences between GI50s of the groups were compared with a non-parametric ANOVA or t-test, as appropriate, on the ranks. We combined the p-values for the three sets of tests and used false discovery rate (FDR) to correct for multiple testing. For the three-sample test, we performed a post-hoc analysis on the compounds with a significant class effect by comparing each group to all others to determine which group was most sensitive. The p-values for the post-hoc test were FDR-corrected together. In all cases, FDR p<0.20 was deemed significant. […] Analyses were performed in R."}}, "data": [{"smiles": "NC(=O)Nc1sc(-c2ccc(F)cc2)cc1C(N)=O", "note": "[TPCA-1]", "values": [{"measurement": "GI50", "setting": "[1]; BT20 cell line, censored GI50 values", "result": 4.36}, {"measurement": "GI50", "setting": "[1]; HCC38 cell line, censored GI50 values", "result": 5.50}, {"measurement": "GI50", "setting": "[1]; HCC70 cell line, censored GI50 values", "result": 5.44}, {"measurement": "GI50", "setting": "[1]; HCC1143 cell line, censored GI50 values", "result": 5.07}, {"measurement": "GI50", "setting": "[1]; HCC1187 cell line, censored GI50 values", "result": 5.67}, {"measurement": "GI50", "setting": "[1]; HCC1395 cell line, censored GI50 values", "result": 5.22}, {"measurement": "GI50", "setting": "[1]; HCC1419 cell line, censored GI50 values", "result": 5.53}, {"measurement": "GI50", "setting": "[1]; HCC1428 cell line, censored GI50 values", "result": 5.45}, {"measurement": "GI50", "setting": "[1]; HCC1500 cell line, censored GI50 values", "result": 5.39}, {"measurement": "GI50", "setting": "[1]; HCC1806 cell line, censored GI50 values", "result": 5.34}, {"measurement": "GI50", "setting": "[1]; HCC1954 cell line, censored GI50 values", "result": 4.77}, {"measurement": "GI50", "setting": "[1]; HCC2185 cell line, censored GI50 values", "result": 5.36}, {"measurement": "GI50", "setting": "[1]; HCC3153 cell line, censored GI50 values", "result": 4.87}, {"measurement": "GI50", "setting": "[1]; LY2 cell line, censored GI50 values", "result": 4.54}, {"measurement": "GI50", "setting": "[1]; MDAMB134VI cell line, censored GI50 values", "result": 4.79}, {"measurement": "GI50", "setting": "[1]; MDAMB231 cell line, censored GI50 values", "result": 4.45}, {"measurement": "GI50", "setting": "[1]; MDAMB361 cell line, censored GI50 values", "result": 4.18}, {"measurement": "GI50", "setting": "[1]; MDAMB436 cell line, censored GI50 values", "result": 5.16}, {"measurement": "GI50", "setting": "[1]; MDAMB468 cell line, censored GI50 values", "result": 5.94}, {"measurement": "GI50", "setting": "[1]; SUM52PE cell line, censored GI50 values", "result": 6.25}, {"measurement": "GI50", "setting": "[1]; SUM149PT cell line, censored GI50 values", "result": 5.78}, {"measurement": "GI50", "setting": "[1]; SUM159PT cell line, censored GI50 values", "result": 5.81}, {"measurement": "GI50", "setting": "[1]; SUM1315MO2 cell line, censored GI50 values", "result": 6.09}, {"measurement": "GI50", "setting": "[1]; UACC893 cell line, censored GI50 values", "result": 5.21}, {"measurement": "GI50", "setting": "[1]; cell line 600MPE", "result": 4.18}, {"measurement": "GI50", "setting": "[1]; cell line AU565", "result": 4.18}, {"measurement": "GI50", "setting": "[1]; cell line BT20", "result": 4.36}, {"measurement": "GI50", "setting": "[1]; cell line BT474", "result": 4.18}, {"measurement": "GI50", "setting": "[1]; cell line BT549", "result": 4.18}, {"measurement": "GI50", "setting": "[1]; cell line HCC38", "result": 5.50}, {"measurement": "GI50", "setting": "[1]; cell line HCC70", "result": 5.44}, {"measurement": "GI50", "setting": "[1]; cell line HCC202", "result": 3.88}, {"measurement": "GI50", "setting": "[1]; cell line HCC1143", "result": 5.07}, {"measurement": "GI50", "setting": "[1]; cell line HCC1187", "result": 5.67}, {"measurement": "GI50", "setting": "[1]; cell line HCC1395", "result": 5.22}, {"measurement": "GI50", "setting": "[1]; cell line HCC1419", "result": 5.53}, {"measurement": "GI50", "setting": "[1]; cell line HCC1428", "result": 5.45}, {"measurement": "GI50", "setting": "[1]; cell line HCC1500", "result": 5.39}, {"measurement": "GI50", "setting": "[1]; cell line HCC1806", "result": 5.34}, {"measurement": "GI50", "setting": "[1]; cell line HCC1937", "result": 4.18}, {"measurement": "GI50", "setting": "[1]; cell line HCC1954", "result": 4.77}, {"measurement": "GI50", "setting": "[1]; cell line HCC2185", "result": 5.36}, {"measurement": "GI50", "setting": "[1]; cell line HCC3153", "result": 4.87}, {"measurement": "GI50", "setting": "[1]; cell line LY2", "result": 4.54}, {"measurement": "Subtype specificity", "setting": "[2]", "result": "Basal + Claudin-low"}]}]}
